The structures appear in SMILES notation. Bounds are passed on as bounds.

This test has as its system Aβ42 (human neuroglioma H4 cells expressing human wild type APP751). The test can be described thus: In vitro cell screening assay with sandwich ELISA quantification of Aβ42 peptide. Conditions: H4 cells stably expressing human wild type APP751; Pro293 chemically defined medium; compounds 0.003-10 μM; incubated overnight (16-18 h); supernatant Aβ42 by sandwich ELISA; normalized to DMSO and DAPT; read-out: Aβ42 H4 Prot Fre IC50. In kind it is cell-based. The gist of the method: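 H4 neuroglioma cells stably expressing human wild-type APP751 were treated in Pro293 medium with compounds (0.003-10 μM, 0.33% DMSO) for 16-18 h at 37° C. Secreted Aβ42 measured by sandwich ELISA (C-terminal capture, 4G8-HRP detection, TMB, 450 nm). IC50 by variable-slope sigmoidal regression on percent of DMSO control.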
Take `Cc1cn(-c2ccc(Nc3ncc4c(n3)N(C)[C@@H](CO)CO4)cc2F)cn1` [Example 170, (S)-(2-((3-fluoro-4-(4-methyl-1H-imidazol-1-yl)phenyl)amino)-8-methyl-7,8-dihydro-6H-pyrimido [5,4-b] [1, 4]oxazin-7-yl) methanol]: the half-inhibitory concentration (IC50) came to 1240 nM.
On to `COc1cc(Nc2ncc3c(n2)N(C)C(C)CO3)ccc1-n1cnc(C)c1` (single isomer, unassigned; (+)) [Example 116B], for which the 50% inhibitory concentration (IC50) is 63 nM.
Consider `Cc1cn(-c2ccc(Nc3ncc4c(n3)N(C)C(c3cc(F)cc(F)c3)CO4)cc2)cn1` (racemic) [Example 23], for which the IC50 was determined as 37.9 nM.
The same measure for `COc1cc(Nc2ncc3c(n2)N(C)C(c2ccccc2Cl)CO3)ccc1-c1ccnc(C)c1` (single isomer, unassigned; (-)) [Example 85A]: 292 nM; for `Cc1cn(-c2ccc(Nc3ncc4c(n3)N(C)C(c3cc(F)cc(F)c3)CO4)cc2C(F)F)cn1` (single isomer, unassigned; (+)) [Example 222A]: 361 nM; for `Cc1cn(-c2ccc(Nc3ncc4c(n3)N(C)C(C3CCOCC3)CO4)cc2F)cn1` (single isomer, unassigned; (-)) [Example 109B]: greater than 3000 nM.
`COc1nc(Nc2ncc3c(n2)N(C)C(c2cc(F)c(F)c(F)c2)CO3)ccc1-n1cnc(C)c1` (single isomer, unassigned; (-)) [Example 188A]: the IC50 was greater than 3000 nM.
As for `COc1cc(Nc2ncc3c(n2)N(C)C(c2ccc(F)cc2F)CO3)cnc1-n1cnc(C)c1` (single isomer, unassigned; (+)) [Example 186A], the IC50 was found to be 18 nM.
The same measure for `COc1cc(Nc2ncc3c(n2)N(C)C(c2cc(F)cc(F)c2)CO3)ccc1C#N` (single isomer, unassigned; (+)) [Example 237B, (+)-4-((7-(3,5-difluorophenyl)-8-methyl-7,8-dihydro-6H-pyrimido [5,4-b] [1, 4]oxazin-2-yl)amino)-2-methoxybenzonitrile]: 226 nM; for `COc1cc(Nc2ncc3c(n2)N(C)C(C)CO3)cnc1-n1cnc(C)c1` (single isomer, unassigned; (-)) [Example 185B]: 540 nM.
As to `Cc1cn(-c2ccc(Nc3ncc4c(n3)N(C)C(c3cc(F)c(F)cc3C(F)(F)F)CO4)cc2F)cn1` (single isomer, unassigned) [Example 198A], the half-maximal inhibitory concentration (IC50) worked out at 1110 nM.
Consider `Cc1cn(-c2ncc(Nc3ncc4c(n3)N(C)C(c3cc(F)cc(F)c3)CO4)cc2Cl)cn1` (single isomer, unassigned; (-)) [Example 210B], for which the IC50 turned out to be 2340 nM.
As for `Cc1cn(-c2ccc(Nc3ncc4c(n3)N(C)C(C)CO4)cc2C(F)F)cn1` (single isomer, unassigned; (+)) [Example 214A], the figure is greater than 3000 nM.
As to `Cc1cn(-c2ccc(Nc3ncc4c(n3)N(C)C(c3cc(F)c(F)cc3F)CO4)cc2F)cn1` (single isomer, unassigned; (-)) [Example 98B], the 50% inhibitory concentration (IC50) amounted to 2100 nM.
As for `COc1cc(Nc2ncc3c(n2)N(C)C(c2ccc(F)cc2F)CO3)ccc1-n1cnc(C)c1` (racemic) [Example 48], the figure is 36 nM; as for `COc1cc(Nc2ncc3c(n2)N2C(=O)CCC2CO3)cnc1-n1cnc(C)c1` (single isomer, unassigned; (+)) [Example 302A, (+)-2-((5-methoxy-6-(4-methyl-1H-imidazol-1-yl)pyridin-3-yl)amino)-6,6a, 7,8-tetrahydro-9H-pyrimido [5,4-b] pyrrolo [1,2-d] [1, 4] oxazin-9-one], greater than 3000 nM; as for `COc1cc(Nc2ncc3c(n2)N(C)C(c2ccc(F)cc2Cl)CO3)ccc1-n1cnc(C)c1` (single isomer, unassigned; (-)) [Example 93A], 189 nM.
The same measure for `COc1cc(Nc2ncc3c(n2)N2CCCC2CO3)ccc1-n1cnc(C)c1` (single isomer, unassigned; (+)) [Example 290B, (+)-N-(3-methoxy-4-(4-methyl-1H-imidazol-1-yl)phenyl)-6a, 7,8,9-tetrahydro-6H-pyrimido [5,4-b] pyrrolo [1,2-d] [1, 4] oxazin-2-amine]: 151 nM.

Source of the values: patent publication US9771378B2 (Denali Therapeutics, Inc., priority 2014, dated 2017).
